From US20200009247A1, “DRUG COMBINATIONS” (ASTEX PHARMACEUTICALS, INC., priority 2013, published 2020)
In brackets after ≈: the same amount, converted by molar mass. Read-outs that look alike come from different tables or passages of the source.

Assays:
[1] = test system: DNA methylation (CMV-EE210 cell line, silenced GFP transgene); assay: cell-based green fluorescent protein (GFP) assay for demethylating activity; conditions: concentration at which GFP expression level is reduced from g3 to g1/2; read-out: GFP50
Method: The demethylating activity of the compounds was tested in a cell-based green fluorescent protein (GFP) assay. In the assay, a decrease in methylation resulting from exposure to a methylation inhibitor leads to GFP expression, and is readily scored.
The CMV-EE210 cell line containing the epigenetically silenced GFP transgene was used to assay for reactivation of GFP expression by flow cytometry. CMV-EE210 was made by transfecting NIH 3T3 cells with the pTR-UF/UF1/UF2 plasmid, which contained pBS(+) (Stratagene, Inc.) with a cytomegalovirus (CMV) promoter driving a humanized GFP gene adapted for expression in mammalian cells. After transfection, high-level GFP expressing cells were initially selected by FACS analysis and sorting using a MoFlo cytometer (Cytomation, Inc.).
Decitabine, a potent inhibitor of mammalian DNMT1, was used as a positive control. […] Cells were then seeded to 30% confluence (˜5000 cell/well) in a 96-well plate containing the test compounds, and grown for three days in at 37 ° C. in 5% CO2.
The plates were examined under a fluorescent microscope using a 450-490 excitation filter (13 filter cube, Leica, Deerfield Ill.). Wells were scored gl positive, g2 positive, or g3 if GFP was expressed in 10%, 30%, >75% of viable cells, respectively.
Table 1 provides the results of the test for decitabine and the test compounds as DNA methylation inhibitors. GFP50 is the concentration of an inhibitor at which the Green Fluorescent Protein (GFP) expression level is reduced from g3 to g1/2.

[2] = test system: murine mammary carcinoma cells TS/A; assay: anti-tumor effect in TS/A murine breast cancer model (Example 6); format: in vivo, Balb/c mice; conditions: day 26 vs control mice; SGI-110 3 mg/kg SQ QDx5 days 1-5; anti-CTLA-4 mAb 100 μg at days 8, 11, 14 where combined
Method: TS/A is a murine mammary carcinoma originated from a moderately differentiated, weakly immunogenic mammary adenocarcinoma spontaneously arising in a 20-mo-old female BALB/c mouse.
The anti-mouse CTLA-4 was the CTLA-4 mAb 9H10, obtained from BioXCell (West Lebanon, N.H., USA), dosed at 100 μg/mouse in 200 μl (ip).
Balb/c mice (6/group) were injected SQ in the flank region with murine mammary carcinoma cells TS/A (2×10^5).
Control mice were injected with diluent for reconstitution. The effectiveness and tolerability of treatments was evaluated by tumor volume and body weight measurements, respectively.

[3] = single dose pharmacokinetics in monkeys; conditions: single dose 10 mg/kg
solubility = format: physicochemical
Source text: The good chemical stability taken together with the excellent solubility identified the glycol/glycerin/ethanol (65:25:10) system as a formulation for use in animal experiments.

[4] = stability in solvent formulations by HPLC; format: physicochemical
Method: The stability of a compound of the invention in various formulations under various storage conditions was investigated. Stability was determined by HPLC at the designated time intervals.

LINE-1 DNA methylation = LINE-1 DNA methylation in blood samples; format: in vivo, cynomolgus monkeys; conditions: monkey blood samples; repeat dose 3 mg/kg; until day 22; p<0.05
Method: FIG. 3 illustrates the decrease in LINE1 methylation levels observed in blood samples drawn from cynomolgus monkeys on various days (D) after pretest.
In a repeat dose study, monkeys were dosed 3× weekly subcutaneously (3 mg/kg). […] (FIGS. 1 and 2.) Pharmacodynamic properties (not shown) were monitored and were acceptable. Blood samples were drawn periodically to assay LINE-1 DNA methylation.

## Nc1ncn([C@H]2CC(O)[C@@H](COP(=O)(O)OC3C[C@H](n4cnc5c(=O)[nH]c(N)nc54)O[C@@H]3CO)O2)c(=O)n1 (stereo partly shown)
[1]
  EC50: 700 nM

## Nc1ncn([C@H]2C[C@H](OP(=O)(O)OC[C@H]3O[C@@H](n4cnc5c(=O)[nH]c(N)nc54)C[C@@H]3O)[C@@H](CO)O2)c(=O)n1 [SGI-110]
[2]
  tumor growth inhibition: 62.9%
[3]
  AUC: 1,469 ng·hr/mL
solubility; propylene glycol/glycerin/ethanol (65:25:10), organic solvent or mixture, read-out: maximum solubility
  solubility: 130 to 150 mg/mL (≈ 233 to 269 mM)
solubility; water, aqueous, read-out: aqueous solubility
  solubility: 20 mg/mL (≈ 35.9 mM)
[4]; DMSO/water (1:1, w/w), 25° C./60% relative humidity
  % decomposition per hour: 0.72
[4]; DMSO/water (1:1, w/w), 25° C./60% relative humidity, 5 hours
  Percent compound detected: 90.1%
[4]; DMSO/water (1:1, w/w), 25° C./60% relative humidity, time point 0
  Percent compound detected: 93.7%
[4]; DMSO/water (3:1, w/w), 25° C./60% relative humidity
  % decomposition per hour: 0.10
[4]; DMSO/water (3:1, w/w), 25° C./60% relative humidity, 24 hours
  Percent compound detected: 94.2%
[4]; DMSO/water (3:1, w/w), 25° C./60% relative humidity, time point 0
  Percent compound detected: 96.6%
[4]; Propylene Glycol/Glycerin/Ethanol (65:25:10, w/w/w), 2-8° C.
  % decomposition per hour: 0.00032
[4]; Propylene Glycol/Glycerin/Ethanol (65:25:10, w/w/w), 2-8° C., 3 months
  Percent compound detected: 95.1%
[4]; Propylene Glycol/Glycerin/Ethanol (65:25:10, w/w/w), 2-8° C., time point 0
  Percent compound detected: 95.8%
[4]; Propylene Glycol/Glycerin/Ethanol (65:25:10, w/w/w), 25° C./60% relative humidity
  % decomposition per hour: 0.013
[4]; Propylene Glycol/Glycerin/Ethanol (65:25:10, w/w/w), 25° C./60% relative humidity, 3 months
  Percent compound detected: 67.6%
[4]; Propylene Glycol/Glycerin/Ethanol (65:25:10, w/w/w), 25° C./60% relative humidity, time point 0
  Percent compound detected: 95.8%
[4]; Propylene glycol/Glycerin (70:30, v/v), room temperature
  % decomposition per hour: 0.021
[4]; Propylene glycol/Glycerin (70:30, v/v), room temperature, 24 hours
  Percent compound detected: 96.3%
[4]; Propylene glycol/Glycerin (70:30, v/v), room temperature, time point 0
  Percent compound detected: 96.8%
[4]; anhydrous DMSO
  stability in anhydrous DMSO: stable
[4]; combined effects of cooling plus addition of ethanol to the propylene glycol/glycerin system
  improvement in stability: 66 fold
[4]; propylene glycol/glycerin/ethanol (65:25:10), changing from warmer to colder storage conditions
  improvement in stability: 40 fold
[4]; water, pH 7.0, 2-8° C.
  % decomposition per hour: 0.14
[4]; water, pH 7.0, 2-8° C., 5 hours
  Percent compound detected: 95.1%
[4]; water, pH 7.0, 2-8° C., time point 0
  Percent compound detected: 95.8%
[4]; water, pH 7.0, room temperature
  % decomposition per hour: 1.1
[4]; water, pH 7.0, room temperature, 5 hours
  Percent compound detected: 90.4%
[4]; water, pH 7.0, room temperature, time point 0
  Percent compound detected: 95.8%
LINE-1 DNA methylation
  LINE-1 DNA methylation vs level prior to initial dosing: Decreases

## Nc1ncn([C@H]2CC(OP(=O)(O)OC[C@H]3O[C@@H](n4cnc5c(=O)[nH]c(N)nc54)CC3O)[C@@H](CO)O2)c(=O)n1 (stereo partly shown)
[1]
  EC50: 400 nM

## Nc1ncn([C@H]2C[C@H](O)[C@@H](CO)O2)c(=O)n1 [Decitabine, 5-aza-2′-deoxycytidine]
[3]
  AUC: 340 ng·h/mL
  Cmax: 160 ng/mL
[1]
  EC50: 500 nM
